Experiments:
Human VAP-1 enzyme = target: T1, Human VAP-1 enzyme (Homo sapiens, UniProt Q16853); assay: Human VAP-1 enzyme inhibition test; format: biochemical; details: compound 30 nM; 14C-benzylamine 100 μM, 37° C., 1 hour; read-out: inhibition ratio
T1 construct: purchased R&D Systems, Inc
T1 sequence (Q16853 27-763 limits assumed): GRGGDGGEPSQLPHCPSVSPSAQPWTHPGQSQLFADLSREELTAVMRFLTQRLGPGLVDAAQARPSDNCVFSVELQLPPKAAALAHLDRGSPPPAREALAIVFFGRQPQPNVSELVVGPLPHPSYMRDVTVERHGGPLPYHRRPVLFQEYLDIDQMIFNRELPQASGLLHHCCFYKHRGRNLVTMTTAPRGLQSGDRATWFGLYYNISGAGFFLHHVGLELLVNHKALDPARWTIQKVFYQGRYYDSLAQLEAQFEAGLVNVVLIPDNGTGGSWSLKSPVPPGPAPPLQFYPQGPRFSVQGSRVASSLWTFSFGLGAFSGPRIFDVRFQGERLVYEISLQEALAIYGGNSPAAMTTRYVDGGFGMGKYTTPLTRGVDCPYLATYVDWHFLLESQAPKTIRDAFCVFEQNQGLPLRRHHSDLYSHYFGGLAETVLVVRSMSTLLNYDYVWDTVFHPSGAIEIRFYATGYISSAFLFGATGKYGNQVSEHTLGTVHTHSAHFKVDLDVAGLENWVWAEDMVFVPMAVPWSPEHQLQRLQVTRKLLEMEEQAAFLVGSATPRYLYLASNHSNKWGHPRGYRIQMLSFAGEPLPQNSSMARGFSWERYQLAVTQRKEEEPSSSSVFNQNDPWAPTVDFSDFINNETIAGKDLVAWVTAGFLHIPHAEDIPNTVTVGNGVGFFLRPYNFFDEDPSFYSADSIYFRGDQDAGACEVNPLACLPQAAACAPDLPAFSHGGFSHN
Method: Human VAP-1 Enzyme Inhibition Test
This test was conducted by modifying the method of P. H. Yu et al. (Diabetologia 40 1243 (1997)). Human VAP-1 enzyme (R&D Systems, Inc.) was pre-incubated in a 96-well plate with the compound dissolved in dimethylsulfoxide at room temperature for 20 minutes. Next, in a solution to the final volume of 200 μL, the enzyme reaction solution was incubated with ^14C-benzylamine (final concentration 100 μM) at 37° C. for 1 hour. The reaction was terminated by the addition of 100 μL of 2 M citric acid solution to the reaction solution. The oxidative product was extracted using a toluene/ethyl acetate mixture and the radioactivity was measured with a liquid scintillation counter. The inhibition ratio of the compound was calculated using the following equation. Inhibition ratio={1−[VAP-1 enzyme activity after treatment with the compound]/[VAP-1 enzyme activity in the presence of dimethylsulfoxide alone without the compound]}×100 [Math. 1]

rat plasma VAP-1 = target: T2, rat plasma VAP-1 (Rattus norvegicus, UniProt O08590); assay: (Ex vivo) rat plasma VAP-1 inhibition test after oral administration of the compound; format: in vivo; details: 3 hours after oral administration, SD male rats, non-fasting, read-out: inhibition ratio (plasma VAP-1 activity)
T2 construct: The blood was centrifuged at 14000 rpm for 10 minutes to get plasma; from tissue; host or cells: plasma of SD male rats (ex vivo, after oral dosing)
T2 sequence (O08590 28-763 limits assumed): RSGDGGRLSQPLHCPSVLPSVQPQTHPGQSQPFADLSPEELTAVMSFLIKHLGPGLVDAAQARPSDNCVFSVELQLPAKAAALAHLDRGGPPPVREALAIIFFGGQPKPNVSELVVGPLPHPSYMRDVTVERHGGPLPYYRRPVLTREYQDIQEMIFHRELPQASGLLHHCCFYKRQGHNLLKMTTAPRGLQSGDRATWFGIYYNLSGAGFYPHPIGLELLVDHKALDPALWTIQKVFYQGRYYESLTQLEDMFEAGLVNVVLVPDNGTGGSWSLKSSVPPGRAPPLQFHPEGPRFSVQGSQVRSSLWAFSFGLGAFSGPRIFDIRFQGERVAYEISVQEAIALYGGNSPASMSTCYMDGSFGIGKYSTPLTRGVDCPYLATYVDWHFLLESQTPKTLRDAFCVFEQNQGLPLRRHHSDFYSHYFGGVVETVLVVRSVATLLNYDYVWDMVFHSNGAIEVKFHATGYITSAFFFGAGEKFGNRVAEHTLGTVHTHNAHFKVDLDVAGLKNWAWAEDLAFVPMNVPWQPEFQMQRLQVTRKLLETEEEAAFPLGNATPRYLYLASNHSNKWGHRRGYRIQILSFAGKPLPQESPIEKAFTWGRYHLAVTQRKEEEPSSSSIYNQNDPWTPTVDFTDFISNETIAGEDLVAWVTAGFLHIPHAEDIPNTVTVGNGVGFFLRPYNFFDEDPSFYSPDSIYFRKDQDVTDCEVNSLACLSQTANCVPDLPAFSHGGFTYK
Method: (Ex Vivo) Rat Plasma VAP-1 Inhibition Test after Oral Administration of the Compound
The compound was orally administered (0.3-10 mg/kg) to 7-12 week old SD male rats in the non-fasting state. Under anesthesia, the blood was collected in heparin tubes from the jugular vein before the administration and 3, 8 and 24 hours after the administration. The blood was centrifuged at 14000 rpm for 10 minutes to get plasma. The VAP-1 enzyme activity in the plasma was measured by radiochemical enzyme assay.
The radiochemical enzyme assay was conducted by modifying the method of P. H. Yu et al. (Diabetologia 40 1243 (1997)). ^14C-benzylamine (2.5 μM) was added to the obtained plasma, and was incubated at 37° C. for 3 hours. The reaction was terminated by the addition of 100 μL of 2 M citric acid solution to the reaction solution. The oxidative product was extracted using a toluene/ethyl acetate mixture and the radioactivity was measured with a liquid scintillation counter. The inhibition ratio of the compound was calculated using the following equation. Inhibition ratio={1−[Plasma VAP-1 activity after administration of the compound]/[Plasma VAP-1 activity before administration]}×100 [Math. 4]

[1] = Rat pharmacokinetic (PK) study (concentration of compound in plasma after oral administration); format: in vivo, SD rats; details: dose 3 mg/kg
Method: Rat Pharmacokinetic (PK) Study (Concentration of Compound in Plasma after Oral Administration)
Seven to eight week old SD rats (weighing 180 to 250 g) were orally administered with a suspension of the compound in 0.5 W/V % methylcellulose 400 solution. Under anesthesia, the blood was collected from the jugular vein in EDTA tubes at 0.25, 0.5, 1, 2, 4, 6, 8 and 24 hours after the administration of the compound. The blood was centrifuged at 4° C. and 6000 g for 3 minutes to give plasma. Acetonitrile was added to the plasma, and the mixture was stirred with a shaker at 750 rpm for 3 minutes and was deproteinized by centrifugation at 3700 rpm for 2 minutes. The obtained sample was analyzed by LC/MS under the following conditions.
The concentration of the compound in the plasma at each blood sampling time was determined by an internal standard method, and AUC all (Area Under Curve) was calculated by a trapezoidal method.
The following LC and MS systems were used for measurement.
LC: CBM 30 series manufactured by Shimadzu Corporation
Column: Phenomenex Kinetex C18 (50×2.1 mm, 2.6 μm)
Column temperature: 40° C.
Mobile phase A: 0.1% aqueous formic acid solution, mobile phase B: 0.1% formic acid, 50% acetonitrile/methanol mixture
MS: 3200 manufactured by SCIEX

inhibition at 0.03 µM (Human VAP-1 enzyme) [%] | inhibition in vivo at 0.3 mg/kg (rat plasma VAP-1) [%] | amount of metabolites found in the blood [1] | Compound
≥ 50 | ≥ 50 |  | COC1CN(c2ncc(-c3cccc(COC(=O)NC(=N)N)c3F)cc2F)C1 [Example 1, 2-Fluoro-3-[5-fluoro-6-(3-methoxyazetidin-1-yl)pyridin-3-yl]benzyl carbamimidoylcarbamate]
≥ 50 | ≥ 50 |  | [2H]C([2H])([2H])OC1CN(c2ncc(-c3cccc(COC(=O)NC(=N)N)c3F)cc2F)C1 [Example 2, 2-Fluoro-3-{5-fluoro-6-[3-(methoxy-d3)azetidin-1-yl]pyridin-3-yl}benzyl carbamimidoylcarbamate]
≥ 50 | ≥ 50 |  | N=C(N)NC(=O)OCc1cccc(-c2cnc(N3CC(OCCF)C3)c(F)c2)c1F [Example 4, 2-Fluoro-3-{5-fluoro-6-[3-(2-fluoroethoxy)azetidin-1-yl]pyridin-3-yl}benzyl carbamimidoylcarbamate]
≥ 50 | ≥ 50 |  | CC(C)OC1CN(c2ncc(-c3cccc(COC(=O)NC(=N)N)c3F)cc2F)C1 [Example 6, 2-Fluoro-3-[5-fluoro-6-(3-isopropoxyazetidin-1-yl)pyridin-3-yl]benzyl carbamimidoylcarbamate]
≥ 50 | ≥ 50 |  | N=C(N)NC(=O)OCc1cccc(-c2cnc(N3CCC3)c(F)c2)c1F [Example 9, 3-[6-(Azetidin-1-yl)-5-fluoropyridin-3-yl]-2-fluorobenzyl carbamimidoylcarbamate]
≥ 50 | ≥ 50 |  | CC1(C)CN(c2ncc(-c3cccc(COC(=O)NC(=N)N)c3F)cc2F)C1 [Example 13, 3-[6-(3,3-Dimethylazetidin-1-yl)-5-fluoropyridin-3-yl]-2-fluorobenzyl carbamimidoylcarbamate]

The next lines start with the compound.

Compound | inhibition at 0.03 µM (Human VAP-1 enzyme) [%] | inhibition in vivo at 0.3 mg/kg (rat plasma VAP-1) [%] | amount of metabolites found in the blood [1]
CCOC1CN(c2ncc(-c3cccc(COC(=O)NC(=N)N)c3F)cc2F)C1 [Example 3, 3-[6-(3-Ethoxyazetidin-1-yl)-5-fluoropyridin-3-yl]-2-fluorobenzyl carbamimidoylcarbamate] | ≥ 50 | ≥ 50 | 
N=C(N)NC(=O)OCc1cccc(-c2cnc(N3CC(O)C3)c(F)c2)c1F [Example 8, 2-Fluoro-3-[5-fluoro-6-(3-hydroxyazetidin-1-yl)pyridin-3-yl]benzyl carbamimidoylcarbamate] | ≥ 50 | ≥ 50 | small
N=C(N)NC(=O)OCc1cccc(-c2cnc(N3CC(F)C3)c(F)c2)c1F [Example 10, 2-Fluoro-3-[5-fluoro-6-(3-fluoroazetidin-1-yl)pyridin-3-yl]benzyl carbamimidoylcarbamate] | ≥ 50 | ≥ 50 | 
N=C(N)NC(=O)OCc1cccc(-c2cnc(N3CC(F)(F)C3)c(F)c2)c1F [Example 11, 3-[6-(3,3-Difluoroazetidin-1-yl)-5-fluoropyridin-3-yl]-2-fluorobenzyl carbamimidoylcarbamate] | ≥ 50 | ≥ 50 | 
CC1CN(c2ncc(-c3cccc(COC(=O)NC(=N)N)c3F)cc2F)C1 [Example 12, 2-Fluoro-3-[5-fluoro-6-(3-methylazetidin-1-yl)pyridin-3-yl]benzyl carbamimidoylcarbamate] | ≥ 50 | ≥ 50 | 
CC1(O)CN(c2ncc(-c3cccc(COC(=O)NC(=N)N)c3F)cc2F)C1 [Example 15, 2-Fluoro-3-[5-fluoro-6-(3-hydroxy-3-methylazetidin-1-yl)pyridin-3-yl]benzyl carbamimidoylcarbamate] | ≥ 50 | ≥ 50 | small
N=C(N)NC(=O)OCc1cccc(-c2cnc(N3CC4(COC4)C3)c(F)c2)c1F [Example 16, 2-Fluoro-3-[5-fluoro-6-(2-oxa-6-azaspiro[3.3]heptan-6-yl)pyridin-3-yl]benzyl carbamimidoylcarbamate] | ≥ 50 | ≥ 50 | small
